# Legend:
# [1] = test system: Kudzu vines (pueraria lobata); assay: Field trials of helium gas applied to Kudzu vine root systems through a perforated tube; format: in vivo
# Description: With respect to the helium canister 33, two canisters, each having 0.25 cubic meters of helium gas under a pressure (when full) of at least 260 pounds per square inch (PSI), for a total of 0.5 cubic meters at standard atmospheric pressure and temperature provide a suitable herbicidal effect when the canister 33 (only one of which canisters is shown in the drawing) are applied in sequence in accordance with the invention. […] Naturally, for Kudzu eradication over larger areas, large helium tanks also have been used with great success.
# (§1) In operation, the chuck on a battery powered drill (not shown in the drawing) connects the drill to the drill shank 23. The tube 10 is placed near a Kudzu vine stem as that stem protrudes above the earth with the longitudinal tube axis 17 of the tube 10 generally perpendicular to the surface of earth 35 to press drill bit 11 against the soil. Preferably a 1.6 cm diameter black oxide coated drill bit is suitable for this purpose.
# (§2) The drill is energized and the torque applied by the drill turns the tube 10 and the drill bit 11, causing the drill bit 11 and the balance of the tube 10 to bore into the earth. The drilling is continued until all of the perforations in the two perforation sets 12A and 22A are well below the surface of the earth, whereupon the drill is deactivated and disconnected from the shank 23.
# (§3) A first of the two helium canisters 33 is then coupled through the flexible conduit 32 and the gas adapter 31 to the valve 28. Valve handle 34 is shifted to a valve open position and helium gas flows from the canister 33, through the valve 28 and into the hollow center 24 (FIG. 2) of the tube 10.
# Once in the tube 10, under the gas pressure supplied by the helium canister 33, the helium gas disperses into soil 36 surrounding the tube 10 through the perforations in the sets 12A and 22A and migrates in the soil 36 to Kudzu vine root 37. Upon depletion of the helium in the canister 33, the valve handle 34 is shifted to close the valve 28. […]
# surrounding plant life = assay: Field trials: effect of the Kudzu vine treatment on surrounding plant life; format: in vivo; conditions: observed through growth of new grass and new leaf growth
# Description: as §1, §2, §3
# Once in the tube 10, under the gas pressure supplied by the helium canister 33, the helium gas disperses into soil 36 surrounding the tube 10 through the perforations in the sets 12A and 22A and migrates in the soil 36 to Kudzu vine root 37. […]
compound,measurement,setting,value
[He] [helium],Kudzu vine herbicidal result,"[1]; Balloon Time helium canisters, helium purity 94% to 96%, two canisters of 0.25 cubic meters applied in sequence",produced the desired Kudzu vine herbicidal result
same,Kudzu destroyed (estimated),"[1]; four weeks after exposure to helium, third test site",~95%
same,Kudzu vines destroyed,"[1]; four weeks after exposure to helium, two test sites, about 0.5 cubic meters helium into soil near roots",all of the Kudzu vines so treated were destroyed
same,Effect of Kudzu vine treatment on surrounding plant life,surrounding plant life,surprisingly beneficial

# Source: US8904703B2, “Herbicide method and apparatus” (priority 2011, dated 2014)
